Data: patent EP1444982A1, “The use of purine derivatives as selective kinase inhibitors” (MERCKLE GMBH, priority 2003, dated 2004)

Tests used:
Assay type in all cases: biochemical
ROCKII (h) = test: Kinase inhibition assay (33P-ATP, P30 filter, scintillation counting): ROCK-II; conditions: 30µM Testsubstanz (100 µM ATP); 40 min
GSK3β (h) = GSK3β (h) (Homo sapiens, UniProt P49841); test: Kinase inhibition assay (33P-ATP, P30 filter, scintillation counting): GSK3β; conditions: 30µM Testsubstanz (100 µM ATP); read-out: Hemmung von Kinasen in % GSK3β (h)
Description: (§1) Alle Kinasen werden auf zehnfache Arbeitskonzentration vor Anwendung in dem Essay verdünnt. Die Zusammensetzung des Verdünnungspuffers ist für jede Kinase in der nachfolgenden Tabelle angegeben.
(§2) Alle Substrate werden gelöst und auf eine Stammlösung in entsalztem Wasser verdünnt.
GSK3β (h)(5-10mU) in einem Endreaktionsvolumen von 25 µl wird mit 8 mM MOPS pH 7.0, 0.2 mM EDTA, 20 µM […](p) EDEEE (phospho GS2 Peptid), 10 mM MgAcetat und [γ-^33P-ATP] inkubiert (spezifische Aktivität etwa 500 cpm/pmol, Konzentration wie erforderlich). Die Reaktion wird durch Zugabe von Mg^2+[γ-^33P-ATP] initiiert. Nach 40-minütiger Inkubation bei Raumtemperatur wird die Reaktion durch Zugabe von 5 µl einer 3 %igen Phosphorsäurelösung gestoppt. 10 µl der Reaktion werden dann auf ein P30-Filter gegeben und dreimal jeweils 5 Minuten in 50 mM Phosphorsäure und einmal in Methanol gewaschen. Anschließend wird getrocknet und eine Szintillationszählung durchgeführt.

MEK1 (h) = MEK1 (h) (Homo sapiens, UniProt Q02750); test: Kinase inhibition assay: MEK1 (coupled to MAPK2 assay); conditions: 30µM Testsubstanz (100 µM ATP); read-out: Hemmung von Kinasen in % MEK1 (h)
Description: as §1, §2
MEK1 (h)(1-5 mU) in einem Endreaktionsvolumen von 25 µl wird mit 50 mM Tris pH 7.5, 0.2 mM EGTA, 0.1 % b-Mercaptoethanol, 0,01 % Brij-35, 1 µM inaktives MAPK2 (m), 10 mM MgAcetat und kaltem ATP inkubiert (Konzentration wie erforderlich). Die Reaktion wird durch Zugabe von MgATB initiiert. Nach 40-minütiger Inkubation bei Raumtemperatur werden […] dieses Inkubationsgemisches dazu verwendet, den oben beschriebenen MAPK2-Assay zu initiieren.

c-RAF (h) = c-RAF (h) (Homo sapiens, UniProt P04049); test: Kinase inhibition assay (33P-ATP, P30 filter, scintillation counting): c-RAF; conditions: 40 min; 30µM Testsubstanz (100 µM ATP); read-out: Hemmung von Kinasen in % c-RAF (h)
Description: as §1, §2
(§3) c-RAF (ha)(5-10 mU) in einem Endreaktionsvolumen von 25 µl wird mit 25 mM Tris pH 7.5,.0.02 mM EGTA, 0.66 mg/ml Myelin-Basisprotein, 10 mM MgAcetat und [γ-^33P-ATP] inkubiert (spezifische Aktivität etwa 50 cpm/pmol, Konzentration wie erforderlich). Die Reaktion wird durch Zugabe von Mg^2+[γ-^33P-ATP] initiiert. Nach 40-minütiger Inkubation bei Raumtemperatur wird die Reaktion durch Zugabe von 5 µl einer 3 %igen Phosphorsäurelösung gestoppt. 10 µl der Reaktion werden dann auf ein P30-Filter gegeben und dreimal jeweils 5 Minuten in 50 mM Phosphorsäure und einmal in Methanol gewaschen. Anschließend wird getrocknet und eine Szintillationszählung durchgeführt.

MAPK2 (h) = MAPK2 (h) (Homo sapiens, UniProt P28482); test: Kinase inhibition assay: MAPK2; conditions: 30µM Testsubstanz (100 µM ATP); read-out: Hemmung von Kinasen in % MAPK2 (h)
Description: as §1, §2

MAPK1 (h) = MAPK1 (h) (Homo sapiens, UniProt P27361); test: Kinase inhibition assay: MAPK1; conditions: 30µM Testsubstanz (100 µM ATP); read-out: Hemmung von Kinasen in % MAPK1 (h)
Description: as §1, §2

SAPK2a (h) = SAPK2a (h) (Homo sapiens, UniProt Q16539); test: Kinase inhibition assay (33P-ATP, P30 filter, scintillation counting): SAPK2a; conditions: 30µM Testsubstanz (100 µM ATP); read-out: Hemmung von Kinasen in % SAPK2a (h)
Description: as §1, §2
as §3, with “SAPK2a (h) wird” for “c-RAF (ha)(5-10 mU)”, “µl” for “µl wird”, “7,5, 0.02” for “7.5,.0.02”, “0.33” for “0.66”

PKB (h) = PKB (h) (Homo sapiens, UniProt P31749); test: Kinase inhibition assay (33P-ATP, P30 filter, scintillation counting): PKB; conditions: 40 min; 30µM Testsubstanz (100 µM ATP); read-out: Hemmung von Kinasen in % PKB (h)
Description: as §1, §2
PKBα (h)(5-10mU) wird in einem Endreaktionsvolumen von 25 µl mit 8 mM MOPS pH 7.0, 0.2 mM EDTRA, 30 µM GRPRTSSFAEGKK, 10 mM MgAcetat und [γ-^33P-ATP] inkubiert (spezifische Aktivität etwa 50 cpm/pmol, Konzentration wie erforderlich). Die Reaktion wird durch Zugabe von Mg^2+[γ-^33P-ATP] initiiert. Nach 40-minütiger Inkubation bei Raumtemperatur wird die Reaktion durch Zugabe von 5 µl einer 3 %igen Phosphorsäurelösung gestoppt. 10 µl der Reaktion werden dann auf ein P30-Filter gegeben und dreimal jeweils 5 Minuten in 50 mM Phosphorsäure und einmal in Methanol gewaschen. Anschließend wird getrocknet und eine Szintillationszählung durchgeführt.

Lck (h) = Lck (h) (Homo sapiens, UniProt P06239); test: Kinase inhibition assay (33P-ATP, P30 filter, scintillation counting): Lck; conditions: 30µM Testsubstanz (100 µM ATP); read-out: Hemmung von Kinasen in % Lck (h)
Description: as §1, §2
as §3, with “Lck (h)(5-10 mU)” for “c-RAF (ha)(5-10 mU)”, “mit 50” for “mit 25”, “pH 7.5, 0.1” for “pH 7.5,.0.02”, “EGTA, 0.1 mM NaVanadate, 250 µM KVEKIGEGTYGVVYK (Cdc2 Peptid),” for “EGTA, 0.66 mg/ml Myelin-Basisprotein,”, “etwa 500” for “etwa 50”

PKA (h) = test: Kinase inhibition assay (33P-ATP, P30 filter, scintillation counting): PKA; conditions: 30µM Testsubstanz (100 µM ATP); 40 min
JNK3 (r) = JNK3 (r) (Rattus norvegicus, UniProt P49187); test: Kinase inhibition assay: JNK3; conditions: 30µM Testsubstanz (100 µM ATP); read-out: Hemmung von Kinasen in % JNK3 (r)
Description: as §1, §2

Chain of PKB (h) (P31749 whole entry): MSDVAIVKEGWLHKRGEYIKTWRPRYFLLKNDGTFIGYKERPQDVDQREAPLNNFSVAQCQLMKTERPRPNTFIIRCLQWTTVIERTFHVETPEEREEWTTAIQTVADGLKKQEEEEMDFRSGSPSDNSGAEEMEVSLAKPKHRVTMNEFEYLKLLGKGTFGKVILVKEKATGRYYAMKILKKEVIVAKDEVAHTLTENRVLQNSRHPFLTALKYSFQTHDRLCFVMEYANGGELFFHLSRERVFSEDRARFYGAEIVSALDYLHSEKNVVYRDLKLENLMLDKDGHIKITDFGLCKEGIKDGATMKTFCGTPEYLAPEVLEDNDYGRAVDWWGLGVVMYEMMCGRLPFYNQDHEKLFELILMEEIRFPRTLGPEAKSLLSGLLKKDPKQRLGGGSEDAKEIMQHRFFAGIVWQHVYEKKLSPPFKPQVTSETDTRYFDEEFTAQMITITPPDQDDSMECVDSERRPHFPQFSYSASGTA
Chain of JNK3 (r) (P49187 whole entry): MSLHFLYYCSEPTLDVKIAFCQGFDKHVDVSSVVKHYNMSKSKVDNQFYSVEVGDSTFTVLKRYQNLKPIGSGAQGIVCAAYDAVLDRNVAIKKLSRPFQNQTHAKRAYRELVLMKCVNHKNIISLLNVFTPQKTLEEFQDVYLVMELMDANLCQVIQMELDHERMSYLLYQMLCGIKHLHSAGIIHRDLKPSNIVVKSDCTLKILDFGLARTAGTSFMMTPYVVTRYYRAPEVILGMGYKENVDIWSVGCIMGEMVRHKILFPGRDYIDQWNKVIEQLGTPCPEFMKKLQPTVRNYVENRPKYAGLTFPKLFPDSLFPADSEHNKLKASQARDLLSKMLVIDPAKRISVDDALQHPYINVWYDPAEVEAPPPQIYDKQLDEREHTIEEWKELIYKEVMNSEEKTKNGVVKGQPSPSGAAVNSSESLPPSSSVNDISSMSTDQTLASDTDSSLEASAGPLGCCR
Chain of MAPK1 (h) (P27361 whole entry): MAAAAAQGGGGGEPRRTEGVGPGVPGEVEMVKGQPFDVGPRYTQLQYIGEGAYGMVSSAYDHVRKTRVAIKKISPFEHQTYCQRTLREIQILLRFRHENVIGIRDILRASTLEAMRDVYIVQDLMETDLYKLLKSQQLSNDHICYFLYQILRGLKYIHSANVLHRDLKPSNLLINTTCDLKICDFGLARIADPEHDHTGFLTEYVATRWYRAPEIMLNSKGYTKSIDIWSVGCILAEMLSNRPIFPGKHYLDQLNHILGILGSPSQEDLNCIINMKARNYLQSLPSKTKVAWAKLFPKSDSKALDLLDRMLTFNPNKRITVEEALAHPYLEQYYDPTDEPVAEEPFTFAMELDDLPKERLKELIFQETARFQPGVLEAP
Chain of c-RAF (h) (P04049 whole entry): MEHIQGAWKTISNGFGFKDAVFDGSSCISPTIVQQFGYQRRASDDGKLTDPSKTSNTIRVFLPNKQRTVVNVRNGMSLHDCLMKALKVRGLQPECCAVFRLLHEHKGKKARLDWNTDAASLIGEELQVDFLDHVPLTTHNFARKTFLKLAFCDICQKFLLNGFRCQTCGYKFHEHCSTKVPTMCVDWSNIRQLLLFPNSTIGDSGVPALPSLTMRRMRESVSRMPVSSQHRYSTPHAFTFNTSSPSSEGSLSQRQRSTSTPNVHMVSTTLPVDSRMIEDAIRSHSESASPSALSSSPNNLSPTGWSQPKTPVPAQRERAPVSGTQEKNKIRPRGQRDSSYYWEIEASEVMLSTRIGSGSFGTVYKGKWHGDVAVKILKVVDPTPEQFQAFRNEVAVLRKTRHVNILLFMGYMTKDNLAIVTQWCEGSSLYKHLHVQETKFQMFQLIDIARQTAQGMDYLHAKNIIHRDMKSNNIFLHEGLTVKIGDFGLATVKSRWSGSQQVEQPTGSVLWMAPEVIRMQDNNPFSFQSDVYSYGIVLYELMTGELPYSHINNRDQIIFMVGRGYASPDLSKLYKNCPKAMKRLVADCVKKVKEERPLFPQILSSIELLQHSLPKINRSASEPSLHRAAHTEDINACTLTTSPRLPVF
Chain of MAPK2 (h) (P28482 whole entry): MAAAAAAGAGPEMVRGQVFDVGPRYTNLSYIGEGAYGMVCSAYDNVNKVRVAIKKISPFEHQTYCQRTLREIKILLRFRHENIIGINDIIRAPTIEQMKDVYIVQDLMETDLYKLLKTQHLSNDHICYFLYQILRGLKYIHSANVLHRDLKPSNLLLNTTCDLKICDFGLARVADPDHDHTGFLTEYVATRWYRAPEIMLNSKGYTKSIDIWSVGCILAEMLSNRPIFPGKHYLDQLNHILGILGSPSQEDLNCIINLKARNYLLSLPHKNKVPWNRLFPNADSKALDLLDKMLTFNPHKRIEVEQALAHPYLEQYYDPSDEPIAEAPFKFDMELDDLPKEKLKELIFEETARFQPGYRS
Chain of SAPK2a (h) (Q16539 whole entry): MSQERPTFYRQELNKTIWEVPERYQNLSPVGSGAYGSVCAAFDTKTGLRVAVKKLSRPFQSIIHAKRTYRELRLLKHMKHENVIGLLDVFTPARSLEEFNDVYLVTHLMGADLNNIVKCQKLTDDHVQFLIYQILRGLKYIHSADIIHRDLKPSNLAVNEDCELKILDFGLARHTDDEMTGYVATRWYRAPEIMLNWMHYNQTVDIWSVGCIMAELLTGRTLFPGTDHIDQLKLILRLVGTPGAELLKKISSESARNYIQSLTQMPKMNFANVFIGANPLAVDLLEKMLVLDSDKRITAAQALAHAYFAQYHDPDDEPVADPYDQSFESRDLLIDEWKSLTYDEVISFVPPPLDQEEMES
Chain of MEK1 (h) (Q02750 whole entry): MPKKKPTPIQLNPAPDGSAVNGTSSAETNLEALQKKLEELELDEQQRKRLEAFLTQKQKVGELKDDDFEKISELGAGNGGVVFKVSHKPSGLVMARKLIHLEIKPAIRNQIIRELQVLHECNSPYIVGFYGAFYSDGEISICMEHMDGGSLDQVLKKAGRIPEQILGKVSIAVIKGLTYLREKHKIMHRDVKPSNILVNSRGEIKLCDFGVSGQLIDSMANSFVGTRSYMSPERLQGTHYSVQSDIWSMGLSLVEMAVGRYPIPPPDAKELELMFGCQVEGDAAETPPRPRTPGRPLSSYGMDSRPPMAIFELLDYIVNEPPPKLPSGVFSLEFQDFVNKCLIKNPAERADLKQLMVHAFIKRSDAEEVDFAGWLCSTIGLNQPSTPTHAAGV
Chain of Lck (h) (P06239 whole entry): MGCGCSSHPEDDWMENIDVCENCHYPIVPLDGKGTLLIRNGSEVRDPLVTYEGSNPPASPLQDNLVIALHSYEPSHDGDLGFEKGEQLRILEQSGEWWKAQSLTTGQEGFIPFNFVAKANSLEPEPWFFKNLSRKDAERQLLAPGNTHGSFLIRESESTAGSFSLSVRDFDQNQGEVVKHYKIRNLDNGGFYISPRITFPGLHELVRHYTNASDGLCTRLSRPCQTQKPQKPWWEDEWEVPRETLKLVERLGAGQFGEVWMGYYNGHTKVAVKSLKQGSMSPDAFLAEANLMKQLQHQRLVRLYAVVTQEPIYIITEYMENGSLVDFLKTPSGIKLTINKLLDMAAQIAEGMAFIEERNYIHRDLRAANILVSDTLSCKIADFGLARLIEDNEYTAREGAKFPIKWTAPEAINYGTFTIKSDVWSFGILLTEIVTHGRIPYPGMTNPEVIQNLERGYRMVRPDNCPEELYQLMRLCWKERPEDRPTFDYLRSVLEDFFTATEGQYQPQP
Chain of GSK3β (h) (P49841 whole entry): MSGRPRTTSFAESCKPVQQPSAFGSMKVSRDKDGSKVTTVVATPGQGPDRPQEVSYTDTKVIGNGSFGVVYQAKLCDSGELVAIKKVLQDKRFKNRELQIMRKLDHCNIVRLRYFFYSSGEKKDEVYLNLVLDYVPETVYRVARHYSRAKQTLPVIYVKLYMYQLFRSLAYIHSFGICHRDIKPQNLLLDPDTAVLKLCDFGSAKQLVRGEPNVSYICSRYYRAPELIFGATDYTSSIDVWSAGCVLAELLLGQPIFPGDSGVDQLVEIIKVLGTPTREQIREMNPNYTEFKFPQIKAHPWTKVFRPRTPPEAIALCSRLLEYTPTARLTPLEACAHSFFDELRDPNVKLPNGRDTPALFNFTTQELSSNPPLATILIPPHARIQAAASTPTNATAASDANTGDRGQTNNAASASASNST

| Compound | Hemmung von Kinasen in % ROCKII (h) (ROCKII (h)) | inhibition at 30 µM (GSK3β (h)) | inhibition at 30 µM (MEK1 (h)) | inhibition at 30 µM (c-RAF (h)) | inhibition at 30 µM (MAPK2 (h)) | inhibition at 30 µM (MAPK1 (h)) | inhibition at 30 µM (SAPK2a (h)) | inhibition at 30 µM (PKB (h)) | inhibition at 30 µM (Lck (h)) | Hemmung von Kinasen in % PKA (h) (PKA (h)) | inhibition at 30 µM (JNK3 (r)) |
| --- | --- | --- | --- | --- | --- | --- | --- | --- | --- | --- | --- |
| c1ccc(Nc2ncnc3[nH]cnc23)cc1 [Verbd. 1, Phenyl-(9H-purin-6-yl)-amin] | 48% | 13% | 19% | 19% | 33% | 22% | 34% | 14% | 39% | 32% | 11% |
| Fc1ccc(Nc2ncnc3[nH]cnc23)cc1 [Verbd. 2, (4-Fluoro-phenyl)-(9H-purin-6-yl)-amin] | 52% | 13% | 34% | 24% | 48% | 33% | 30% | 18% | 42% | 40% | 10% |
| c1ccc(CSc2ncnc3[nH]cnc23)cc1 [Verbd. 9, 6-Benzylsulfanyl-9H-purin] | 28% | 35% | 7% | 53% | 12% | 15% | 50% | 4% | 22% | 13% | 7% |
| Fc1ccc(CSc2ncnc3[nH]cnc23)cc1 [Verbd. 10, 6-(4-Fluoro-benzylsulfanyl)-9H-purin] | 18% | 0% | 0% | 47% | 5% | 9% | 29% | 6% | 16% | – | 12% |
| Cn1cnc2c(Nc3ccccc3)ncnc21 [Verbd. 13, (9-Methyl-9H-purin-6-yl)-phenyl-amin] | 0% | 26% | 4% | 44% | 42% | 16% | 0% | 0% | 18% | 0% | 5% |
| Cn1cnc2c(Nc3ccc(F)cc3)ncnc21 [Verbd. 14, (4-Fluoro-phenyl)-(9-methyl-9H-purin-6-yl)-amin] | 7% | 14% | 8% | 27% | 57% | 36% | 13% | 0% | 9% | 0% | 19% |
| c1ccc(Sc2ncnc3[nH]cnc23)cc1 [Verbd. 15, 6-Phenylsulfanyl-9H-purin] | 33% | 1% | 0% | 6% | 13% | 3% | 54% | 0% | 5% | 8% | 0% |
| Fc1ccc(Sc2ncnc3[nH]cnc23)cc1 [Verbd. 16, 6-(4-Fluoro-phenylsulfanyl)-9H-purin] | 37% | 0% | 2% | 29% | 12% | 2% | 72% | 0% | 13% | 10% | 8% |
| Cn1cnc2c(Sc3ccc(F)cc3)ncnc21 [Verbd. 18, 6-(4-Fluoro-phenylsulfanyl)-9-methyl-9H-purin] | 6% | 0% | 6% | 12% | 12% | 9% | 38% | 0% | 2% | 1% | 9% |
| Cn1c(-c2ccccc2)nc2c(Sc3ccccc3)ncnc21 [Verbd. 23, 9-Methyl-8-phenyl-6-phenylsulfanyl-9H-purin] | 1% | 0% | 4% | 12% | 0% | 10% | 44% | 42% | 5% | 3% | 12% |
| Cn1c(-c2ccccc2)nc2c(Sc3ccc(F)cc3)ncnc21 [Verbd. 24, 6-(4-Fluoro-phenylsulfanyl)-9-methyl-8-phenyl-9H-purin] | 9% | 22% | 7% | 14% | 1% | 11% | 29% | 29% | 20% | 3% | 16% |
| Cn1c(-c2ccccc2)nc2c(-c3ccc(F)cc3)ncnc21 [Verbd. 41, 6-(4-Fluoro-phenyl)-9-methyl-8-phenyl-9H-purin] | 0% | 26% | 5% | 24% | 1% | 20% | 23% | 31% | 17% | 0% | 12% |
